The source of these data is PubChem BioAssay AID248 (DTP/NCI, 2004).

The test system of this assay is L1210 leukemia ip in BDF1 mice, survival T/C. The experiment in a line: NCI In Vivo Anticancer Drug Screen. Data for tumor model L1210 Leukemia (intraperitoneal) in B6D2F1 (BDF1) mice. The following applies: endpoint: mean survival time, higher = longer survival. The method, boiled down:
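Value reflects the ratio of survival in compound-treated mice to survival in vehicle-treated controls, with both groups carrying the same transplanted tumor.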

[1] abbreviates: dose: 100.0 mg/kg/injection, schedule: Q04DX003 (ip), vehicle: Klucel (hydroxypropylcellulose) (HPC).
Setting [2] is: dose: 200.0 mg/kg/injection, schedule: Q04DX003 (ip), vehicle: Klucel (hydroxypropylcellulose) (HPC).
[3] abbreviates: dose: 400.0 mg/kg/injection, schedule: Q04DX003 (ip), vehicle: Klucel (hydroxypropylcellulose) (HPC).
The mark [4] stands for this setting: dose: 100.0 mg/kg/injection, schedule: Q01DX001 (ip), vehicle: carboxymethylcellulose (CMC).
[5] abbreviates: dose: 200.0 mg/kg/injection, schedule: Q01DX001 (ip), vehicle: carboxymethylcellulose (CMC).
[6] abbreviates: dose: 400.0 mg/kg/injection, schedule: Q01DX001 (ip), vehicle: carboxymethylcellulose (CMC).
[7] abbreviates: dose: 100.0 mg/kg/injection, schedule: Q01DX009 (ip), vehicle: Klucel (hydroxypropylcellulose) (HPC).
[8] abbreviates: dose: 200.0 mg/kg/injection, schedule: Q01DX009 (ip), vehicle: Klucel (hydroxypropylcellulose) (HPC).
[9] abbreviates: dose: 400.0 mg/kg/injection, schedule: Q01DX009 (ip), vehicle: Klucel (hydroxypropylcellulose) (HPC).

“And” between values parts separate entries of the source, which are not always exact repeats. Equal values may be shown once. Inconclusive results and toxic doses are left out.

In the case of `Cc1cc2c(c3oc(C4(C)OC4C4OC4C)cc(=O)c13)C(=O)c1c(O)c(C3CC(C)(N(C)C)C(O)C(C)O3)cc(C3CC(N(C)C)C(O)C(C)O3)c1C2=O` (stereo not drawn), the T/C (dose: 0.06 mg/kg/injection, schedule: Q01DX009 (ip), vehicle: other) was 118 % of control; the T/C (dose: 0.06 mg/kg/injection, schedule: Q01DX009 (ip), vehicle: saline) was 114 % of control; the T/C (dose: 0.12 mg/kg/injection, schedule: Q01DX009 (ip), vehicle: other) is 95 % of control; the T/C (dose: 0.12 mg/kg/injection, schedule: Q01DX009 (ip), vehicle: saline) was 86 % of control; the T/C (dose: 0.24 mg/kg/injection, schedule: Q01DX009 (ip), vehicle: saline) is 88 % of control; the T/C (dose: 1.5 micrograms/kg/injection, schedule: Q01DX015 (ip), vehicle: saline) was 115 % of control. Further, the T/C reads like this: (dose: 3.0 micrograms/kg/injection, schedule: Q01DX015 (ip), vehicle: saline) 114 % of control; (dose: 4.0 micrograms/kg/injection, schedule: Q01DX001 (ip), vehicle: carboxymethylcellulose (CMC)) 110 % of control; (dose: 6.0 micrograms/kg/injection, schedule: Q01DX015 (ip), vehicle: saline) 117 % of control; (dose: 9.0 micrograms/kg/injection, schedule: Q01DX001 (ip), vehicle: carboxymethylcellulose (CMC)) 109 % of control; (dose: 12.0 micrograms/kg/injection, schedule: Q01DX015 (ip), vehicle: saline) 117 % of control; (dose: 18.0 micrograms/kg/injection, schedule: Q01DX001 (ip), vehicle: carboxymethylcellulose (CMC)) 112 % of control. Further, the T/C runs as follows: (dose: 25.0 micrograms/kg/injection, schedule: Q01DX Z (ip), vehicle: carboxymethylcellulose (CMC)) 107 % of control; (dose: 37.0 micrograms/kg/injection, schedule: Q01DX001 (ip), vehicle: carboxymethylcellulose (CMC)) 112 % of control; (dose: 50.0 micrograms/kg/injection, schedule: Q01DX Z (ip), vehicle: carboxymethylcellulose (CMC)) 98 % of control; (dose: 75.0 micrograms/kg/injection, schedule: Q01DX001 (ip), vehicle: carboxymethylcellulose (CMC)) 121 % of control; (dose: 96.0 micrograms/kg/injection, schedule: Q01DX015 (ip), vehicle: saline) 108 % of control.
As for `O=C(Nc1ccc(NC(=O)Nc2cccc(C3=NCCN3)c2)cc1)Nc1ccc(C2=NCCN2)cc1`, the T/C is 88 % of control (dose: 1.0 mg/kg/injection, schedule: Q01DX Z (ip), vehicle: carboxymethylcellulose (CMC)); 102 % of control (dose: 2.0 mg/kg/injection, schedule: Q01DX Z (ip), vehicle: carboxymethylcellulose (CMC)); 95 % of control (dose: 4.0 mg/kg/injection, schedule: Q01DX Z (ip), vehicle: carboxymethylcellulose (CMC)); 107 % of control (dose: 8.0 mg/kg/injection, schedule: Q01DX Z (ip), vehicle: carboxymethylcellulose (CMC)); 108 % of control (dose: 14.0 mg/kg/injection, schedule: Q01DX Z (oral), vehicle: carboxymethylcellulose (CMC)); 202 % of control (dose: 18.0 mg/kg/injection, schedule: Q01DX Z (ip), vehicle: carboxymethylcellulose (CMC)). The T/C (dose: 21.0 mg/kg/injection, schedule: Q01DX Z (oral), vehicle: carboxymethylcellulose (CMC)) is 109 % of control; the T/C (dose: 32.0 mg/kg/injection, schedule: Q01DX Z (oral), vehicle: carboxymethylcellulose (CMC)) is 103 % of control; the T/C (dose: 36.0 mg/kg/injection, schedule: Q01DX Z (ip), vehicle: carboxymethylcellulose (CMC)) was 116 % of control; the T/C (dose: 48.0 mg/kg/injection, schedule: Q01DX Z (oral), vehicle: carboxymethylcellulose (CMC)) is 103 % of control; the T/C (dose: 62.0 mg/kg/injection, schedule: Q01DX Z (ip), vehicle: saline) was 164 % of control; the T/C (dose: 72.0 mg/kg/injection, schedule: Q01DX Z (oral), vehicle: carboxymethylcellulose (CMC)) was 122 % of control. For the same compound, the T/C (dose: 125.0 mg/kg/injection, schedule: Q01DX Z (ip), vehicle: saline) was 91 % of control.
For `Cc1ccc(S(=O)(=O)N2CCC(=O)c3ccc(Cl)cc32)cc1`, the T/C runs as follows: under setting [1], 93 % of control; under setting [2], 94 % of control; under setting [3], 96 % of control.
As for `c1ccc(CCN(c2ccccc2)c2ccccc2)cc1`, the T/C under setting [4] was 100 % of control, the T/C under setting [5] is 103 % of control and the T/C under setting [6] is 103 % of control.
In the case of `O=C1NC(=O)C(CSCc2ccccc2)(CSCc2ccccc2)N1`, the T/C was 94 % of control (dose: 50.0 mg/kg/injection, schedule: Q01DX009 (ip), vehicle: saline with Tween-80); 92 % of control and 102 % of control (dose: 100.0 mg/kg/injection, schedule: Q01DX009 (ip), vehicle: saline with Tween-80); 94 % of control and 97 % of control (dose: 200.0 mg/kg/injection, schedule: Q01DX009 (ip), vehicle: saline with Tween-80); 100 % of control (dose: 400.0 mg/kg/injection, schedule: Q01DX009 (ip), vehicle: saline with Tween-80).
As for `CCCCCC(/C=N\Nc1nnc(N/N=C\C(=C\c2ccccc2)CCCCC)c2ccccc12)=C/c1ccccc1`, the T/C reads like this: (dose: 50.0 mg/kg/injection, schedule: Q01DX001 (ip), vehicle: carboxymethylcellulose (CMC)) 102 % of control; (dose: 88.0 mg/kg/injection, schedule: Q01DX001 (ip), vehicle: carboxymethylcellulose (CMC)) 98 % of control; under setting [4], 108 % of control; (dose: 133.0 mg/kg/injection, schedule: Q01DX001 (ip), vehicle: carboxymethylcellulose (CMC)) 101 % of control; under setting [5], 104 % of control and 114 % of control; (dose: 300.0 mg/kg/injection, schedule: Q01DX001 (ip), vehicle: carboxymethylcellulose (CMC)) 102 % of control and 104 % of control.
In the case of `Cc1coc(NS(=O)(=O)c2ccc(N=Nc3c(N)n(C)c(=O)n(C)c3=O)cc2)c1C`, the T/C reads like this: under setting [4], 98 % of control; under setting [5], 95 % of control; under setting [6], 98 % of control.
Consider `Cc1nc(C(N)=O)c2nc3c4ccccc4c4ccccc4c3nn12`, for which the T/C was 94 % of control (dose: 25.0 mg/kg/injection, schedule: Q04DX002 (ip), vehicle: saline with Tween-80); 91 % of control (dose: 50.0 mg/kg/injection, schedule: Q04DX002 (ip), vehicle: saline with Tween-80); 87 % of control (dose: 100.0 mg/kg/injection, schedule: Q04DX002 (ip), vehicle: saline with Tween-80); 89 % of control (dose: 200.0 mg/kg/injection, schedule: Q04DX002 (ip), vehicle: saline with Tween-80); 92 % of control (dose: 400.0 mg/kg/injection, schedule: Q04DX002 (ip), vehicle: saline with Tween-80).
Take `O=C(Nc1cccc(Cl)c1)c1ccccc1`: the T/C was 94 % of control under setting [7]; 92 % of control under setting [1]; 94 % of control under setting [8]; 90 % of control under setting [2]; 97 % of control under setting [9]; 101 % of control under setting [3].
For the compound `CCCCCCC/C=N/N=C/CCCCCCC`, the T/C (dose: 100.0 mg/kg/injection, schedule: Q01DX009 (ip), vehicle: other) is 97 % of control; the T/C (dose: 100.0 mg/kg/injection, schedule: Q04DX003 (ip), vehicle: other) is 97 % of control; the T/C (dose: 200.0 mg/kg/injection, schedule: Q01DX009 (ip), vehicle: other) was 100 % of control; the T/C (dose: 200.0 mg/kg/injection, schedule: Q04DX003 (ip), vehicle: other) was 97 % of control; the T/C (dose: 400.0 mg/kg/injection, schedule: Q01DX009 (ip), vehicle: other) was 112 % of control; the T/C (dose: 400.0 mg/kg/injection, schedule: Q04DX003 (ip), vehicle: other) was 109 % of control.
Take `O=c1ccc(=O)n(-c2ccccc2)[nH]1`: the T/C by setting is: under setting [7], 95 % of control; under setting [1], 92 % of control; under setting [8], 93 % of control; under setting [2], 106 % of control; (dose: 267.0 mg/kg/injection, schedule: Q04DX003 (ip), vehicle: Klucel (hydroxypropylcellulose) (HPC)) 110 % of control; under setting [9], 95 % of control. The T/C reads like this: under setting [3], 104 % of control; (dose: 600.0 mg/kg/injection, schedule: Q04DX003 (ip), vehicle: Klucel (hydroxypropylcellulose) (HPC)) 105 % of control.
As for `OCCc1cccc(O)c1`, the T/C is 102 % of control (dose: 50.0 mg/kg/injection, schedule: Q01DX001 (ip), vehicle: saline); 93 % of control (dose: 100.0 mg/kg/injection, schedule: Q01DX001 (ip), vehicle: saline); 86 % of control (dose: 200.0 mg/kg/injection, schedule: Q01DX001 (ip), vehicle: saline); 100 % of control (dose: 400.0 mg/kg/injection, schedule: Q01DX001 (ip), vehicle: saline).
